Reference: paper PMC4416922, “Measurement of Inositol 1,4,5-Trisphosphate in Living Cells Using an Improved Set of Resonance Energy Transfer-Based Biosensors” (PLoS ONE, 2015)

Key:
Test in all cases: [3H]InsP3 radioligand displacement on purified recombinant protein, Scatchard analysis
[1] = molecular target: T1, human type-I InsP 3 receptor ligand binding domain (InsP3R-LBD) (Homo sapiens, UniProt Q14643, R568K)
T1 construct: gene ITPR1; residues 224-605, mRFP- and 6xHis-tagged

[2] = molecular target: T2, human type-I InsP 3 receptor ligand binding domain (InsP3R-LBD) (Homo sapiens, UniProt Q14643, R265K)
T2 construct: gene ITPR1; residues 224-605, mRFP- and 6xHis-tagged
T2 sequence (Q14643 224-605 R265K): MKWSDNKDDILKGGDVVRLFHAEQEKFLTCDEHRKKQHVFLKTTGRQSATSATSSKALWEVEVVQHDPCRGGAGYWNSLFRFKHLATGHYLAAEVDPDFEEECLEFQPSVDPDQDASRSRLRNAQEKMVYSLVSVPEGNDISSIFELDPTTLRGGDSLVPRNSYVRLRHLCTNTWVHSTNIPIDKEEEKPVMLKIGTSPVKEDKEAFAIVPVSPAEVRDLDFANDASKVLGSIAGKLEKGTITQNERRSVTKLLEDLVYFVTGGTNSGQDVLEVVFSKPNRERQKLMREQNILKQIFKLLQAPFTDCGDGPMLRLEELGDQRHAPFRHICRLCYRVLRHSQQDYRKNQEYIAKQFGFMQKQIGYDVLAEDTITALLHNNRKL

[3] = molecular target: T3, human type-I InsP 3 receptor ligand binding domain (InsP3R-LBD) (Homo sapiens, UniProt Q14643)
T3 construct: gene ITPR1; residues 224-605, mRFP- and 6xHis-tagged
T3 sequence (Q14643 224-605): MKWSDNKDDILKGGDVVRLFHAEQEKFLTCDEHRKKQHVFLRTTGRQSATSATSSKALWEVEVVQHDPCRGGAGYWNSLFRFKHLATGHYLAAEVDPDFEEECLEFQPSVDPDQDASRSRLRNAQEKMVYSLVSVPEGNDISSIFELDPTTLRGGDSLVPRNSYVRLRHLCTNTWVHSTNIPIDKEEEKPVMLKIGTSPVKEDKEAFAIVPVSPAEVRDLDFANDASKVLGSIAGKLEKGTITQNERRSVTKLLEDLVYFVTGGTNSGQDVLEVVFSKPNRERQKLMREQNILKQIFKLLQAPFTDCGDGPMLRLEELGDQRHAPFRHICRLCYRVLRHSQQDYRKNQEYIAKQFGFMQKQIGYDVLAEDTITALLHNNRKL

[4] = molecular target: T4, human type-I InsP 3 receptor ligand binding domain (InsP3R-LBD) (Homo sapiens, UniProt Q14643, R269K)
T4 construct: gene ITPR1; residues 224-605, mRFP- and 6xHis-tagged
T4 sequence (Q14643 224-605 R269K): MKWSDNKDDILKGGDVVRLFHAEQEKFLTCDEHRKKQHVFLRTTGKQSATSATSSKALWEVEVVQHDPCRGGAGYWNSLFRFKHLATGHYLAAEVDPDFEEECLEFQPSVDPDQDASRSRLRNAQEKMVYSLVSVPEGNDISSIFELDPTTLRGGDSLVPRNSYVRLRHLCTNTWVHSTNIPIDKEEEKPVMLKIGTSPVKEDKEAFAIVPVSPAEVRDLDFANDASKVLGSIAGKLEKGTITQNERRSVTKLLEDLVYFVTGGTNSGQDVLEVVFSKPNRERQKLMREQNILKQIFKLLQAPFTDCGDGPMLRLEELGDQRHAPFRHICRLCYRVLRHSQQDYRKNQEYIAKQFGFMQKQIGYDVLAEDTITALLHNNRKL

T1 sequence (Q14643 224-605 R568K): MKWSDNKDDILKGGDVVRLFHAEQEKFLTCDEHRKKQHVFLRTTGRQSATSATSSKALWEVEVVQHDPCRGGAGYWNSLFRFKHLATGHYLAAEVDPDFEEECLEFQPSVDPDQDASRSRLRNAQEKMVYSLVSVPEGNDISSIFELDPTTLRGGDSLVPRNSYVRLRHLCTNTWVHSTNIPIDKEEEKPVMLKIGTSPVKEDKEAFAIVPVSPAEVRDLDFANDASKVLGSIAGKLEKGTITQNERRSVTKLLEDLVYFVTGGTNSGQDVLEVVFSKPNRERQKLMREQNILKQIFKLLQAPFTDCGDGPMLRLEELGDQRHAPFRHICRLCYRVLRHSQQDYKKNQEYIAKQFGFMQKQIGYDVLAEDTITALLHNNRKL

Kd [1]: 5.3 nM
Kd [2]: 6.06 nM
Kd [3]: 3.04 nM
Kd [4]: 10.1 nM
SMILES: O=P(O)(O)O[C@@H]1[C@H](O)[C@H](O)[C@@H](OP(=O)(O)O)[C@H](OP(=O)(O)O)[C@H]1O [InsP 3]
